From patent US20070184135A1, “Morinda citrifolia-based formulation 5-LOX and 15-LOX” (priority 2003, published 2007) come the findings set out here.

In this test the target is T1, 5-Lipoxygenase (Homo sapiens, UniProt P09917).
T1 construct: Human peripheral blood mononuclear leukocytes (PBML) were isolated through a Ficoll-Paque density gradient; endogenous in cells; host or cells: human peripheral blood mononuclear leukocytes (PBML)
T1 sequence (P09917 1-674): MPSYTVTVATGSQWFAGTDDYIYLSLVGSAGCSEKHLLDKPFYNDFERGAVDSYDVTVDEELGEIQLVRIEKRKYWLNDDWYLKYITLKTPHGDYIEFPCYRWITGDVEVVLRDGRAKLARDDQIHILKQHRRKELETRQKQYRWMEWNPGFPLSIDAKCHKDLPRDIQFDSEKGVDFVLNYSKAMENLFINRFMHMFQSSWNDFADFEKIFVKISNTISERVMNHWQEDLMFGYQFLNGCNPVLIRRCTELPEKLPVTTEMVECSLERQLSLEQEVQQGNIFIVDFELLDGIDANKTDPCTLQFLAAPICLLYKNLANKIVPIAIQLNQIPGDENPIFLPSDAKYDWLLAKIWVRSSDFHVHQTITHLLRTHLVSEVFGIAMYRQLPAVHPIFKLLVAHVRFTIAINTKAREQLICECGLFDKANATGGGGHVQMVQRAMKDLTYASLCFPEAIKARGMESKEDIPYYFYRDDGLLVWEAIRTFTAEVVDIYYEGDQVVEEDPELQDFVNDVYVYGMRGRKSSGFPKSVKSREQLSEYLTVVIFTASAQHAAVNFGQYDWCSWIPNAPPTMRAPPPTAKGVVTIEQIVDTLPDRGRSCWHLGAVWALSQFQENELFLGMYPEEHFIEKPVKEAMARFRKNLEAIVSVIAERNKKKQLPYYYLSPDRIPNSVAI
Nature of the test: 5-Lipoxygenase inhibition in human PBML stimulated with A 23187, LTB4 measured by EIA. It is filed as cell-based. The text has this: Methods employed in this example were adapted from the scientific literature to maximize reliability and reproducibility. […] 110-13 (2000).
In this study, the 5-LOX source was human peripheral blood mononuclear cells (PBMNC) and the substrate was arachidonic acid having a general reaction of: arachidonic acid→5-LOX→5-HPETE→LTB4. Human peripheral blood mononuclear leukocytes (PBML) were isolated through a Ficoll-Paque density gradient. The inhibiting agent was processed Morinda citrifolia puree juice concentrate. Morinda citrifolia was pre-incubated with PBML (5×10^6 cell/ml) in HBSS buffer pH 7.4 at 37° C. for 15 minutes. […] Following neutralization with NaOH and centrifugation, the supernatant LTB4 is measured using an EIA kit.
The supernatant sample was utilized in same assay and protocols as outlined in Example One above, wherein the brown substance obtained was substituted for Morinda citrifolia puree juice.

“And” between values parts separate entries of the source, which are not always exact repeats. Equal values may be shown once.

For `CC(Cc1ccc(O)c(O)c1)C(C)Cc1ccc(O)c(O)c1` (centres unmarked) [NDGA, nordihydroguaretic acid], the Product runs as follows: (0.03 uM) 3608.3 pg/well and 3403.4 pg/well; (0.1 uM) 2433.3 pg/well; (0.3 uM) 1083.1 pg/well and 1106.1 pg/well; (1 uM) 233.7 pg/well and 217.9 pg/well; (3 uM) 134.9 pg/well and 94.3 pg/well.
